Reference: PMC10938758, “A phenotypic screen of the Global Health Priority Box identifies an insecticide with anthelmintic activity” (Parasites & Vectors, 2024)

Assays:
H. contortus xL3s = assay: H. contortus dose-response assay, xL3 motility; set-up: species or system Haemonchus contortus
Protocol: The dose–response assay for H. contortus followed a well-established protocol; it was employed to evaluate the potency of hit compounds against this nematode. Test compounds were assessed individually for an effect on the motility of xL3s (10-point, twofold serial dilution in LB*, 40–0.16 μM). One compound, monepantel (prepared in the same manner as the test compounds), was used as a positive control. A solution of LB* was used as a negative control. The test and positive-control compounds were arrayed in triplicate across individual flat-bottom 96-well microplates, with six wells on each plate containing the negative control. Three hundred xL3s of H. contortus in 50 μl of LB* were added to each well to give a final volume of 100 μl. Plates were then placed in a CO2 incubator (10% [v/v] CO2, 38 °C, > 90% humidity). […] Over a period of 15 min, disturbance of an infrared beam in individual wells was recorded as a worm activity count. Raw activity counts for each well were normalised to the negative controls. The compound concentrations were log10-transformed and fitted using a variable-slope four-parameter equation, using the ordinary least squares fit model, employing GraphPad Prism (v.9.1.0). Larval development was established at 168 h of incubation with compound, as described previously. The development inhibition and phenotypes of larvae were examined microscopically. A one-way analysis of variance (ANOVA) with a Tukey multiple comparison test or an unpaired t-test was used to establish statistically significant differences in larval motility or development.

H. contortus larvae = assay: H. contortus dose-response assay, larval development; set-up: species or system Haemonchus contortus; conditions: Haemonchus contortus, 168 h, read-out: IC50, inhibition of H. contortus larval development
Protocol: The dose–response assay for H. contortus followed a well-established protocol; it was employed to evaluate the potency of hit compounds against this nematode. Test compounds were assessed individually for an effect on the motility of xL3s (10-point, twofold serial dilution in LB*, 40–0.16 μM). One compound, monepantel (prepared in the same manner as the test compounds), was used as a positive control. A solution of LB* was used as a negative control. The test and positive-control compounds were arrayed in triplicate across individual flat-bottom 96-well microplates, with six wells on each plate containing the negative control. Three hundred xL3s of H. contortus in 50 μl of LB* were added to each well to give a final volume of 100 μl. Plates were then placed in a CO2 incubator (10% [v/v] CO2, 38 °C, > 90% humidity). After 168 h of incubation, worm activity was captured using a WMicroTracker ONE unit. Over a period of 15 min, disturbance of an infrared beam in individual wells was recorded as a worm activity count. Raw activity counts for each well were normalised to the negative controls. The compound concentrations were log10-transformed and fitted using a variable-slope four-parameter equation, using the ordinary least squares fit model, employing GraphPad Prism (v.9.1.0). Larval development was established at 168 h of incubation with compound, as described previously. The development inhibition and phenotypes of larvae were examined microscopically. A one-way analysis of variance (ANOVA) with a Tukey multiple comparison test or an unpaired t-test was used to establish statistically significant differences in larval motility or development.

[1] = tested on: adult females of H. contortus; assay: Motility of H. contortus adult females (video scoring); set-up: species or system Haemonchus contortus; conditions: 40 μM
Protocol: The activity of two test compounds was assessed on adult female specimens of H. contortus in an established assay. The compound was added in triplicate to the wells of a 24-well plate (Corning, USA) at a concentration of 40 μM in 500 μl of RPMI*. Two positive-control compounds, monepantel and moxidectin, and a negative control containing 1% (v/v) DMSO only were included in triplicate on the same plate. Three adult females were added to each of the triplicate wells containing either the test compound or the controls and placed in a CO2 incubator (10% [v/v] CO2, 38 °C, > 90% relative humidity) for 24 h. A video recording (30 s) of each well was taken at 3 h, 6 h, 12 h and 24 h during the total incubation period to assess the reduction in worm motility, which was scored as 3 (‘good’), 2 (‘low’), 1 (‘very low’) or 0 (‘no movement’; cf.). For each test or control compound, the motility scores for each of the triplicate wells were calculated, normalised with reference to the negative control (100% motility) and recorded as a percentage. A two-way ANOVA with a Tukey multiple comparison test was used to establish statistically significant differences in worm motility.

[2] = Cytotoxicity on HepG2 cells (glucose medium, crystal violet); type: cell-based; conditions: human, D-glucose medium, read-out: half-maximal cytotoxic concentration (CC50)
Protocol: The cytotoxic and mitotoxic activity of MMV1794206 on HepG2 human hepatoma cells was evaluated using an established protocol. The test compounds were serially diluted (seven-point, twofold serial dilution, 40–0.63 µM) in Dulbecco’s modified Eagle medium (DMEM; Thermo Fisher Scientific, USA), with GlutaMax™ supplemented with 25 mM D-glucose (cytotoxicity) or D-galactose (mitotoxicity), 10% heat-inactivated foetal bovine serum (FBS), 100 IU/ml of penicillin, 100 µg/ml of streptomycin and 0.25 µg/ml of amphotericin B (denoted as DMEM*). Monepantel and moxidectin (prepared in the same manner as the test compound) were included as reference compounds. Two compounds, doxorubicin (cytotoxic; Sigma-Aldrich, USA) and M-666 (mitotoxic; [57]), were used as positive controls at a single concentration of 10 µM. A solution of DMEM* + 0.25% (v/v) DMSO was used as a negative control. HepG2 cells were seeded into wells of a 96-well plate in 80 µl of DMEM* (at 1 × 10^5 cells per well) and allowed to adhere for 16 h at 37 °C and 5% (v/v) CO2 at > 90% humidity prior to incubation with individual compounds, at a final volume of 100 µl. […] Following 48 h of incubation with compounds, cell viability was determined by crystal violet staining. The absorbance (595 nm) of treated cells was normalised using the negative controls (viability: 100%) to calculate the cell viability. […]

[3] = tested on: acetylcholine esterase (AChE); conditions: in vitro and in vivo; direct or indirect effect not confirmed; cited from earlier work

## CC(F)c1ncnc(NCCc2ccc(OC(F)(F)F)cc2)c1Cl (stereo not drawn) [MMV1794206, flufenerim]
H. contortus xL3s; Haemonchus contortus, 90 h, read-out: IC50, H. contortus larval motility inhibition
  IC50: 18 µM
H. contortus xL3s; xL3s, 90 h of incubation
  Maximum motility inhibition (MMI), H. contortus larvae: 98%
H. contortus larvae
  IC50: 1.2 µM
[1]; 3 h
  Reduction of motility of adult females of H. contortus: ~ 33%
[1]; 6 h
  Reduction of motility of adult females of H. contortus: ~89%
[1]; 12 h
  Reduction of motility of adult females of H. contortus: 100%
[1]; 24 h
  Reduction of motility of adult females of H. contortus: ~100%
[2]
  CC50 at 48 h: < 0.7 µM
[3]
  AChE activity in whiteflies following treatment: decrease in acetylcholine esterase (AChE) activity
